In PubChem BioAssay AID1994 (Broad Institute, 2009):
Results filed as inconclusive are left out. Active and inactive are the calls of the source. No rule for the calls is given here.

System: H4 cells, PrP 5'UTR luciferase reporter translation
Experiment: inhibitors of PrP 5'UTR-driven reporter translation, dose response, luminescence (AID 1994)

Row | Compound | EC50
1 | C=C(C=O)CC1CC(O)[C@]2(C)OC3CC4OC5C[C@]6(C)O[C@]7(C)CCC8OC9C[C@]%10(C)OC%11C(C)=CC(=O)OC%11CC%10OC9C[C@@H](C)C8OC7CC6O[C@]5(C)CC5OC5C4OC3CC2O1 (some centres not stated) | 1.58 µM
2 | C#CCOCCOCCOCCNc1nc(N2CCN(C(=O)CCCCCCCCCCNC(=O)[C@H](CO)n3cc(CCCSC)nn3)CC2)nc(N2CCN(C(=O)CCCCCCCCCCNC(=O)[C@H](CCCCN)n3cc(C[C@@H](C)CC)nn3)CC2)n1 | > 12 µM (inactive)
